Reference: US20120135089A1, “E3 LIGASE INHIBITORS” (priority 2009, published 2012)

Columns and labels:
[1] = test system: MdmX; experiment: etoposide-induced MdmX degradation in MCF7 cells (Western blot); format: cell-based, human; settings: etoposide 30 μg/ml, 16 hours
Protocol: Cells were plated in 384-well format and treated with MG132 (2 hours) or cycloheximide (30 minutes). Steadylite luminescence buffer (PerkinElmer) was added and the relative luminescence levels determined on a Victor3 Plate Reader. Each graph represents the median of 5 replicates normalized to a no treatment control, and one standard deviation is shown. […] The graphs and EC50 values were determined using Graphpad PRISM®. […] U2OS, RKO, and HCT116 cells (p53 wild-type) were incubated with 5 μg/ml (14 μM) of MEL23, 5 μg/ml (15 μM) of MEL24, or 10 μM of MG132 for 6 hours. Cells were lysed and analyzed by Western blotting using anti-Mdm2, anti-p53, and anti-eIF4E antibodies. NT indicates a no treatment control. […] MCF7 cells (p53 wild-type) were incubated with 30 μg/ml (51 μM) etoposide alone or in combination with 50 μM AlIn or 5 μg/ml (14 μM) MEL23, or 5 μg/ml (15 μM) MEL24 for 16 hours. Cells were lysed and analyzed by Western blotting using anti-MDMX and anti-actin antibodies.
Cells were seeded and treated with the indicated compound(s). Cells were lysed after each time point in a buffer of 50 mM TrisHCl pH 7.5, 200 mM NaCl, 0.5% NP-40, and 1 complete mini EDTA-free protease inhibitor cocktail tablet per 10 mL of buffer (Roche, Cat. No. 8360170). Protein content was quantified using a Biorad protein assay reagent (Bio-Rad Laboratories, Hercules, Calif., Cat. No. 500-0006). SDS sample buffer was added to the samples, and the mixture was boiled for 5 minutes. Equal amounts of protein were resolved on a 1D SDS-PAGE gel. Following separation proteins were transferred to nitrocellulose membrane, blocked with 5% milk, and then incubated with primary antibody overnight at 4° C. The membrane was incubated with secondary-HRP antibody for 45 minutes at room temperature and developed with SuperSignal West Pico Substrate (Pierce, Rockford, Ill., Cat. No. 34080).

[2] = test system: p53 ubiquitination; experiment: cell-based p53 ubiquitination assay in H1299 cells; parameters: species or system human; settings: H1299 transfected with p53, Mdm2, ubiquitin; 10 μg/ml pre-treatment, 10 μM MG132
Protocol: To obtain the results shown in FIG. 4A, Mdm2-luciferase cells were transfected with ubiquitin-HA and treated 8 hours later with 10 μg/ml (28 μM) MEL23, 10 μg/ml (31 μM) MEL24, or a DMSO control. After 16 hours, cells were additionally treated with 10 μM MG132 or a DMSO control. After 3 hours, cells were lysed and immunoprecipitated for 3 hours with anti-HA affinity matrix. Total lysates and immunoprecipitated samples were analyzed by Western blotting using anti-Mdm2 antibody. NT indicates a no treatment control. […] After 8 hours, cells were treated with 10 μg/ml (28 μM) MEL23, 10 μg/ml (31 μM) MEL24, or a DMSO control. After 16 hours, cells were additionally treated with 10 μM MG132 or a DMSO control. After 3 hours cells were lysed and analyzed by Western blotting using anti-p53 antibody. “p53-Ub” indicates the slower migrating species of the protein that are the ubiquitin-conjugated forms.
To test the effects of the MEL compounds on p53 ubiquitination, H1299 cells were transfected with plasmids expressing p53, Mdm2, and ubiquitin and pre-treated with 10 μg/ml MEL23 or MEL24, followed by treatment with 10 μM MG132. Ubiquitination of p53 was analyzed by Western blotting. […] In fact, the half-life of p53 increased from an hour to greater than 6 hours with 5 μg/ml MEL23 treatment (FIG. 32). Thus, treatment with MEL23 and MEL24 inhibits ubiquitin conjugation to Mdm2 and p53.

[3] = target: T1, Roc1/Cul1 E3 RING domain ligase (Homo sapiens, UniProt P62877+Q13616); experiment: in vitro Roc1/Cul1 E3 ligase ubiquitination assay; format: biochemical
T1 construct: gift from Zhen-Qiang Pan, Mount Sinai School of Medicine
T1 sequence (P62877 whole entry, the tested form may be a part): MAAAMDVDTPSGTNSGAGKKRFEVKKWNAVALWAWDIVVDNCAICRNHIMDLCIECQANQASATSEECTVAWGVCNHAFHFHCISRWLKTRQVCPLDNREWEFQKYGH
T1 sequence (Q13616 whole entry, the tested form may be a part): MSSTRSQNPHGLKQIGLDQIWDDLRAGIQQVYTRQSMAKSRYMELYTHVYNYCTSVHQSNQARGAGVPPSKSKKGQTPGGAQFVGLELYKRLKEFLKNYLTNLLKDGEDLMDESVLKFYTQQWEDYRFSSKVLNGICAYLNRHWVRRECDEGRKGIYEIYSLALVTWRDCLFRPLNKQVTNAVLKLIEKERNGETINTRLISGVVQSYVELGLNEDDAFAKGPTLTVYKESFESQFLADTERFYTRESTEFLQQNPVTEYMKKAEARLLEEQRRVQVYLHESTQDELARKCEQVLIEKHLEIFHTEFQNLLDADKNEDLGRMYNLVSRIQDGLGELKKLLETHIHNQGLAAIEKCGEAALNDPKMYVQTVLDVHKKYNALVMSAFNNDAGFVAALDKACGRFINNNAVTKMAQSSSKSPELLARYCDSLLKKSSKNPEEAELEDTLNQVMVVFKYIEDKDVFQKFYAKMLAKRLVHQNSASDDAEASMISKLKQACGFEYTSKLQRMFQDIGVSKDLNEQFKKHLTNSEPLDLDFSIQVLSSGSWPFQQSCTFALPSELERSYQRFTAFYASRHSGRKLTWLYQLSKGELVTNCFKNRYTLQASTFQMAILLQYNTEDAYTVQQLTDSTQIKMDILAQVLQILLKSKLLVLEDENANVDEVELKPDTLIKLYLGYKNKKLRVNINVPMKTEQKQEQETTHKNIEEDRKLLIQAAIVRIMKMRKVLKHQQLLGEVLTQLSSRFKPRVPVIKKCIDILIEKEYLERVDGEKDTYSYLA
Protocol: These assays were performed with 100 ng of full-length Flag-Mdm2 or 200 ng of Flag-Mdm2/HA-MdmX complexes (100 ng of each protein as each are present in a 1:1 ratio, when purified), ^32P-labeled ubiquitin, UbCH5c, and E1. Following a 30-minute incubation at 37° C., reactions were terminated and resolved on a SDS-PAGE gel followed by autoradiography. PC indicates positive control, and NC indicates negative control with UbCH5C eliminated from the reaction. The gels were quantified by phosphoimaging using ImageQuant software (GE Healthcare Bio-Sciences Corp., Piscataway, N.J.). […] Reactions were performed as in FIG. 11A except 500 ng GST-Mdm2 (residues 400-491) and GST-MdmX (residues 400-490) were used for ubiquitin polymerization. […] Reactions were performed as in FIG. 11A except with 3 μg of the Roc1/Cul1 ligase complex. Ubiquitination activity of the complex was tested in the presence of increasing concentrations of MEL23 and MEL24.
Ubiquitination assays in the presence of increasing concentrations of MEL compounds were performed with 1.5 μg of the Roc1-Cul1 ligase complex, ^32P-labeled ubiquitin, UbCH5c, and E1. Following 30 min incubation at 37° C., reactions were terminated and resolved on a SDS-PAGE gel (FIG. 31A) followed by autoradiography and quantitation (FIG. 31B). […]

[4] = test system: RKO, RKO E6, H1299 and MEF's; experiment: cell cycle analysis by propidium iodide flow cytometry; format: cell-based; settings: two days incubation
Protocol: RKO, RKO E6, H1299 and MEF's were seeded and treated with designated concentration of MEL23. After two days incubation, cells were harvested and fixed in ethanol, followed by staining in a solution of 7.3 μM RNaseA and 98.7 μM propidium iodide (Sigma, St. Louis, Mo.). The samples were read on a FACS Calibur flow cytometer (BD Biosciences, San Jose, Calif.) and analyzed with CeliQuest software (BD Biosciences).

Row | SMILES | etoposide-induced MdmX degradation [1] | p53 ubiquitination in cells [2] | Roc1/Cul1 E3 ligase activity in vitro [3] | cell cycle [4]
1 | CCCCn1c(=O)[nH]c(O)c(C2NCCc3c2[nH]c2ccccc32)c1=O (centres unmarked) [MEL23] | degradation could be prevented | eliminated by pre-treatment | no inhibition | causes G2 cell cycle arrest
2 | Cn1c(O)c(C2NCCc3c2[nH]c2ccccc32)c(=O)n(C)c1=O (centres unmarked) [MEL24] | degradation could be prevented | eliminated by pre-treatment | no inhibition | promotes G2 cell cycle arrest
